Measured values published in PubChem BioAssay (NCI).
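Following 48 hours of exposure in 96-well plates, responses at five concentrations were used to interpolate endpoints linearly. Here, GI50 denotes the concentration required for 50% inhibition of growth. TGI is the concentration that stops growth completely.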

Assays:
Experiment in all cases: growth of human tumour cells (NCI), 48 h
[1] = system: 786-0 renal
[2] = system: ACHN renal
[3] = system: CCRF-CEM leukemia
[4] = system: KM12 colon
[5] = system: LOX IMVI melanoma
[6] = system: MALME-3M melanoma
[7] = system: NCI-H226 lung
[8] = system: NCI-H460 lung
[9] = system: NCI-H522 lung
[10] = system: OVCAR-4 ovarian
[11] = system: SF-268 CNS
[12] = system: SN12C renal
[13] = system: SNB-75 CNS
[14] = system: SR leukemia
[15] = system: TK-10 renal
[16] = system: U251 CNS
[17] = system: SK-OV-3 ovarian
[18] = system: NCI/ADR-RES ovarian

Row | SMILES | TGI [1] [µM] | TGI [2] [µM] | TGI [3] [µM] | TGI [4] [µM] | TGI [5] [µM] | TGI [6] [µM] | TGI [7] [µM] | TGI [8] [µM] | TGI [9] [µM] | TGI [10] [µM] | TGI [11] [µM] | TGI [12] [µM] | TGI [13] [µM] | TGI [14] [µM] | TGI [15] [µM] | TGI [16] [µM] | TGI [17] [µM] | TGI [18] [µM] | GI50 [7] [µM] | GI50 [11] [µM]
1 | COc1c(Cl)c2c(c(OC)c1OC)-c1ccc(OC)c(=O)c(Cl)c1C(NC(C)=O)CC2 (configuration not stated) | > 33.8 | > 100 | > 33.8 | > 100 | 5.87 | > 100 | 1.59 | 1.34 | 0.468 | > 100 | 3.57 | > 36.4 | 1.1 | > 100 | > 100 | 1.15 |  |  |  | 
2 | C/C(=N\NS(=O)(=O)c1ccc(C)cc1)C(CN1CCOCC1)C(c1ccccc1)c1c(O)c2ccccc2oc1=O (configuration not stated) | > 100 | > 100 | > 100 | > 100 | > 100 | > 100 | > 100 | > 100 | > 100 | > 100 | > 100 | > 100 | > 100 | 56.2 | > 100 | > 100 | > 100 |  |  | 
3 | CCOC(=O)c1c(N)nn2c1cc1cccccc12 | > 100 | > 100 | > 100 | 54.6 | 72.9 | 67.3 |  | 58.6 | 46.7 | > 100 | 68.2 | > 100 |  |  | 74.6 | 69.6 | > 100 | 57.7 |  | 
4 | CCOC(=O)c1cc2c(ccc3cc(C(=O)OCC)[nH]c32)[nH]1 | 31.3 | > 100 | > 100 | > 100 | > 100 | > 100 |  | > 100 | > 100 | 32.4 | > 100 | 89.1 | 41.8 | 45.3 | > 100 | 19.1 | > 100 |  |  | 
5 | O=C1CCCCC/C1=C\c1ccc(F)cc1 | > 100 | > 100 | 59.8 | > 100 | > 100 | > 100 | > 100 | > 100 | > 100 | > 100 | > 100 | > 100 | > 100 | > 100 | > 100 | > 100 | > 100 |  |  | 
6 | CC(=N/NC(=S)N1CCCCC1)/C(=N\NC(=S)N1CCCCC1)c1ccccc1 | 3.69 | 3.01 |  | 3.99 | 25.9 | 3.96 | 3.47 | 4.48 | 4.18 | 3.61 | 3.37 | 3.43 | 3.59 |  | 3.21 | 3.53 | 3.49 | 6.43 |  | 
7 | COc1cc(C2c3cc4c(cc3OC(NC3CCCCC3)C2C)OCO4)cc(OC)c1OC (configuration not stated) | 20.1 | 40.2 | > 100 | 7.89 | 17.6 |  | 15.8 | > 100 | 2.28 | > 28.3 | 28.6 | > 41.9 | 0.623 |  | > 68.8 | 23.9 | 15.3 | 3.86 |  | 
8 | CC(=O)O[C@H]1C(=O)[C@@]2(C)[C@H]([C@H](OC(=O)c3ccccc3)[C@]3(O)C[C@H](OC(=O)[C@H](OC(=O)OCCC(O)CO)[C@@H](NC(=O)c4ccccc4)c4ccccc4)C(C)=C1C3(C)C)[C@]1(OC(C)=O)CO[C@@H]1C[C@@H]2O (some centres not stated) | 33 | > 62.2 | 12.2 | 13.1 | 22 |  | < 0.01 | 19 | < 0.01 | > 100 | > 56.9 | 33.6 | 1.28 |  | > 44.6 | 19.2 | > 100 | > 43.4 |  | 
9 | Cc1nc(C)c(C(=O)NNC(=O)Cc2ccccc2)cc1C(=O)NNC(=O)Cc1ccccc1 | > 100 | > 100 | > 100 | > 100 | > 100 |  | > 100 | > 100 | > 100 | > 100 | > 100 | > 100 | > 100 |  | > 100 | > 100 | > 100 | > 100 |  | 
10 | Cc1nc2c(n1CCO)C(=O)c1ccccc1C2=O | > 100 | > 100 | > 100 | > 100 | > 100 | 24.2 | > 100 | > 100 | 27.6 | 99 | > 100 | > 100 | > 100 | > 100 | > 100 | 91.8 | > 100 |  |  | 
11 | CCN1CCC(O)(c2ccc(C)cc2)C(C(=O)c2ccc(C)cc2)C1 (configuration not stated) | 26.6 | 32.1 | 56 | > 91.9 | > 61.2 | 35.1 | > 100 | > 81.1 | 3.44 | 50.1 | > 71.8 | 19.8 | > 100 | 50.9 | > 61 | > 83.9 | > 100 |  |  | 
12 | N#Cc1c2ccc([N+](=O)[O-])cc2c(=O)n2c1sc1ccc(C(F)(F)F)cc12 | > 100 | > 100 |  | > 100 | > 100 | > 100 | > 100 | > 100 | > 100 | > 100 | > 100 | > 100 | > 100 |  | > 100 | > 100 | > 100 | > 100 |  | 
13 | COc1cccc(-c2cc(=O)c3cc(OC)c(OC)cc3[nH]2)c1 | > 100 | > 100 | > 100 | > 100 | > 100 | > 100 | 79.8 | > 100 | 42.4 |  | > 100 | > 100 | > 100 | > 100 | > 100 | > 100 | > 100 |  | 21.5 | 49.6
14 | COc1ccc(N2C(=O)C3c4[nH]c5ccc(OC)cc5c4C4CCC(C(C)(C)C)CC4C3C2=O)cc1 (configuration not stated) | 66.1 | > 100 | > 100 | > 100 | > 100 | 58 | > 100 | > 100 | 89.3 | 43.6 | > 100 | > 100 | 35.6 | > 100 | > 100 | 44.8 | 80 |  |  | 
15 | COc1cccc2c1CCc1ccccc1CC2=O | > 100 | > 100 | > 100 | > 100 | > 100 | > 100 | > 100 | > 100 | > 100 | > 100 | > 100 | > 100 | > 100 | > 100 | > 100 | > 100 | > 100 |  |  | 
16 | C=CCCCC1CCCNC1=O (configuration not stated) | > 100 | > 100 |  | > 100 |  |  | > 100 | > 100 | > 100 | > 100 | > 100 | > 100 | > 100 |  | > 100 | > 100 | > 100 |  |  | 
17 | CC(=O)Oc1ccc2c(c1)Oc1cc(C(C)=O)ccc1C21OC(=O)c2ccccc21 (configuration not stated) | > 100 | > 100 |  | > 100 | > 100 | > 100 |  | > 100 | > 100 | > 100 | > 100 | > 100 | > 100 |  | > 100 | > 100 | > 100 | > 100 |  | 
18 | O=C(/C=C(\O)c1ccc(Cl)cc1)C(=O)N=Nc1c(O)[nH]c2ccc(Br)cc12 | > 100 | > 100 |  | > 100 | > 100 | > 100 | > 100 | > 100 | > 100 | > 100 | > 100 | > 100 | > 100 |  | > 100 | > 100 | > 100 | > 100 |  | 
19 | N#Cc1ccc(Oc2nc3ccccc3nc2-c2ccccc2)cc1 | > 100 | > 100 | > 100 | > 100 | > 100 | > 100 | > 100 | > 100 | > 100 | > 100 | > 100 | > 100 |  |  | > 100 | > 100 | > 100 |  |  | 
20 | O=C1CCCCC1CN1CCCC1 (configuration not stated) | > 100 | > 100 | > 100 | > 100 | > 100 |  | > 100 | > 100 | 0.521 | > 100 | > 100 | > 100 | > 100 | > 100 | > 100 | > 100 | > 100 |  |  | 
21 | CC(=O)c1cccc(NC(=O)/C(=N\NC(C)(C)C)c2c(O)c3ccccc3oc2=O)c1 | > 100 | > 100 | > 100 | > 100 | > 100 | > 100 | > 100 | > 100 | > 100 | > 100 | > 100 | > 100 | > 100 | > 100 | > 100 |  | > 100 |  |  | 
22 | CNC(=O)CN(CC(=O)NC)C(=O)NC | > 100 | > 100 | > 100 | > 100 | > 100 | > 100 | > 100 |  | > 100 | > 100 | > 100 |  | > 100 | > 100 | > 100 | > 100 | > 100 |  |  | 
23 | COc1cc(/C=C2\C[C@H]3[C@@H]4CC=C5C[C@@H](O)CC[C@]5(C)[C@H]4CC[C@]3(C)[C@H]2O)cc(OC)c1OC | 27.1 | > 100 |  | 39.4 | 27.3 | > 100 | > 100 | > 100 | > 100 | 46.2 | > 100 | > 100 | 75.4 |  | > 100 | 40.8 | > 100 | > 100 |  | 
24 | CN(C)c1ccc(-c2cc(=O)c3cc4c(cc3[nH]2)OCO4)cc1 | > 100 | > 100 | > 100 |  | > 100 | > 100 | > 100 | > 100 |  | > 100 | > 100 | > 100 | > 100 | > 100 | > 100 | > 100 |  |  |  | 
25 | COc1ccc2cc(C(C)C(O)c3cc(F)c(F)c(F)c3F)ccc2c1 (configuration not stated) | > 100 | > 100 | > 100 |  | > 100 | > 100 | > 100 | > 100 |  | > 100 | > 100 | > 100 | 43.6 |  | > 100 | > 100 | > 100 | > 100 |  | 
26 | COC(=O)c1ccc(OCc2ccc3nc(OC)c(OC)nc3c2)cc1 | > 100 | > 100 | > 100 | > 100 | > 100 | > 100 | > 100 | > 100 | > 100 | > 100 | > 100 | > 100 | > 100 | > 100 | > 100 | > 100 |  |  |  | 
27 | O=C(O)CN1CCNCCN(CP(=O)(O)O)CC1 | > 29.2 | > 100 | > 100 | > 100 | > 100 | > 100 | > 100 | > 100 | > 26.8 | > 100 | > 100 | > 100 | > 100 | > 100 | > 100 | > 100 | > 100 |  |  | 
28 | Cc1ccc(CC(=O)Nc2ccc(NC(=O)/C=C/NC(=O)/C=C/c3ccc(-c4ccccc4)cc3)cc2C(=O)c2ccccc2)cc1 | 3.34 | 10.9 | 8.84 | 14.6 | 4.84 | 11.5 | 6.15 | 4.6 |  | 3.41 | 9.46 | 5.51 | 6.59 |  | 8.72 | 4.35 | 4.36 | > 100 |  | 
